Assay in all cases: NCI anticancer screen, dose series, 48 h
Assay [1] concerns NCI/ADR-RES ovarian.
For assay [2], the system named is SK-MEL-28 melanoma.
Assay [3] relates to T-47D breast.
Assay [4] concerns A549 NSCLC.
For assay [5], the system named is RPMI-8226 leukemia.
Assay [6] relates to KM12 colon.
The subject of assay [7] is K-562 leukemia.
For assay [8], the system named is UACC-257 melanoma.
In assay [9] the test system is NCI-H460 lung.
The subject of assay [10] is MDA-N.
In assay [11] the test system is RXF 393 renal.

Each structure is given as a SMILES string.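 All cell lines were grown in 96-well plates and treated with compound for 48 hours. GI50: concentration for 50% inhibition of growth. TGI is the concentration that stops growth completely.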

On to `CP(=O)(O)C(N)c1ccccc1` (stereo unspecified), for which the TGI in assay [1], in assay [2], in assay [3], in [4], in assay [5] and in assay [6] was over 100 µM in each case. For the same molecule, the TGI in assay [7], in [8], in [9] and in assay [10] was over 100 µM in each case.
As for `CN(C)C=Nc1c2c(nc3ccccc13)CCCC2`, the TGI in assay [1], in assay [11], in assay [2], in [3], in assay [4] and in [5] was over 100 µM each time. Also, the TGI in assay [7], in assay [8] and in assay [10] was over 100 µM in each case.
Turning to `Nc1nc(N)c2nc(CNc3ccc(C(=O)NC(CCNC(=O)c4ccccc4C(=O)O)C(=O)O)cc3)cnc2n1` (stereo unspecified), the TGI in assay [1], in assay [11], in assay [2], in assay [3], in [4] and in assay [5] was over 100 µM in each case. In addition, the TGI in [6], in assay [7], in assay [8], in assay [9] and in [10] was over 100 µM in each case. The GI50 in assay [11] was 0.967 µM; in assay [4], 0.0688 µM; in assay [5], 0.0343 µM; in [9], 0.0144 µM.
Consider `CC1(C)OC2[C@@H](CO[C@@]3([C@H]4OC(C)(C)O[C@@H]4CO)OC(C)(C)O[C@@H]23)O1` (stereo partly specified), for which the TGI in [1], in assay [11], in [2], in assay [3], in [4] and in assay [5] was over 100 µM throughout. Besides, the TGI in [6], in assay [7], in [9] and in assay [10] was over 100 µM in each case.
As for `COC(=O)CN(CC1O[C@@H]2OC(C)(C)O[C@@H]2C1NC(C)=O)C(=O)OCc1ccccc1` (stereo partly specified), the TGI in assay [1], in assay [2], in assay [3], in [4], in assay [5] and in [6] was over 100 µM in each case. Moreover, the TGI in assay [7], in assay [8], in assay [9] and in assay [10] was over 100 µM in each case.
With `COc1cc(/C=C/c2ccc(S(N)(=O)=O)cc2)cc(OC)c1`, the TGI came out at 89.7 µM in assay [1]; 34.1 µM in assay [11]; 56.8 µM in assay [2]; 41.6 µM in assay [3]; 71.9 µM in assay [4]; 31.5 µM in assay [5]. In addition, the TGI in assay [6] was determined as 57.6 µM; in assay [7], 76.7 µM; in assay [8], 46.8 µM; in [9], 42.9 µM; in assay [10] it was 56 µM. The GI50 in [4] was 20.7 µM; in assay [5], 14.3 µM; in assay [6], 20.8 µM; in assay [7], 28.7 µM.
Turning to `CC1(C)OC2OC(C(=O)c3ccccc3)C3OC(C)(C)OC3C2O1` (stereo unspecified), the TGI in assay [1], in assay [11], in assay [3], in assay [5], in [6] and in assay [7] was over 100 µM throughout. The TGI in [8], in assay [9] and in assay [10] was over 100 µM throughout.
For `CCc1n[nH]c(=O)n1N=C(c1ccccc1)c1ccccc1`, the TGI in assay [1], in assay [11], in [2], in [3], in [4] and in assay [5] was over 100 µM each time. The TGI in assay [6], in assay [7], in assay [8], in assay [9] and in [10] was over 100 µM in each case.
For `C=CC(=C)CCC(Br)C(C)(C)Cl` (stereo unspecified), the TGI in assay [1], in [11], in [2], in assay [3], in [4] and in assay [5] was over 100 µM each time. In addition, the TGI in assay [6], in assay [7], in [8], in assay [9] and in assay [10] was over 100 µM throughout.
For the molecule `COC(=O)C1Cc2c([nH]c3ccccc23)-c2[nH]c3ccccc3c2CC(NC(C)=O)C(=O)N2CCCC2C(=O)N1` (stereo unspecified), the TGI in [1], in assay [11], in [2], in assay [3], in [4] and in assay [5] was over 100 µM each time. The TGI in assay [7], in [8], in [9] and in [10] was over 100 µM in each case.
With `COc1cccc(/C=N/NC(=O)CN(C)C)c1O`, the TGI in assay [1], in assay [11], in assay [2], in assay [3], in [4] and in [6] was over 100 µM throughout. Further, the TGI in [7], in [8], in assay [9] and in assay [10] was over 100 µM throughout.
For the molecule `CCOC(=O)C(NC(=O)c1ccccc1)(Nc1ccc(S(=O)(=O)Nc2ccc(OC)nn2)cc1)C(F)(F)F` (stereo unspecified), the TGI in assay [1], in assay [11], in assay [2], in assay [3], in assay [4] and in assay [5] was over 100 µM each time. Also, the TGI in assay [6], in assay [7], in [8], in assay [9] and in assay [10] was over 100 µM in each case.

For the origin of these results see PubChem BioAssay (NCI).
